Experimental data published in PubChem BioAssay (NCI).
Where “and” joins values, the source holds several entries; their conditions need not be identical. Equal values may be shown once.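 1) Cells in 96-well plates. 2) Compound, 48 h, 5 concentrations. 3) Linear interpolation between surrounding doses. 4) Unreached endpoint = highest concentration. GI50 = concentration required for 50% inhibition of growth. The concentration for full growth arrest is given as TGI.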

Columns and labels:
Test in all cases: inhibition of tumour cell growth, NCI panel, 48 h
[1] = system: NCI-H226 lung
[2] = system: NCI/ADR-RES ovarian
[3] = system: DMS 114 small cell lung
[4] = system: HT29 colon
[5] = system: CCRF-CEM leukemia
[6] = system: XF 498 CNS
[7] = system: OVCAR-4 ovarian
[8] = system: KM12 colon
[9] = system: SNB-75 CNS

COC1C(C)OC(OC2CC(C)(O)Cc3cc4c(c(O)c32)C(=O)c2c(O)cc3c(c2C4=O)OC2OC3(C)C(O)C(N(C)C)C2O)C(OC)C1(C)OC (configuration not stated)
GI50 [1]: 19.8 nM | TGI [1]: 395 nM and 113 nM | TGI [2]: 21.2 µM | TGI [3]: 63.5 nM and 44.6 nM | GI50 [4]: 4.53 nM and 37.9 nM | GI50 [5]: 58.4 nM and 61.2 nM | TGI [5]: 872 nM and 1320 nM | GI50 [6]: 30 nM | TGI [6]: 292 nM and 48.3 nM | TGI [7]: 1610 nM | GI50 [8]: 63.9 nM and 28.9 nM | GI50 [9]: 3.61 nM and 31.5 nM
